Experimental data reported in patent US8708045B2, “Multifunctional boronic acid crosslinking agents and associated methods” (Halliburton Energy Services, Inc., priority 2010, dated 2014).

Assay: Visual solubility of 4-vinylphenyl boronic acid with sorbitol as solubilizing agent
Format: physicochemical
Method: In this example, sorbitol was used as an illustrative solubilizing agent to improve the solubility of 4-vinylphenyl boronic acid. A stock solution of 20 g of sorbitol in 200 mL of deionized water was prepared to give a sorbitol concentration of 0.55 M. In several plastic sealable containers was placed 11-15 mg of the boronic acid (maximum of 0.1 mmol in each container), and a variety of solutions were added to the containers, sometimes with pH adjustment. Thereafter, the containers were vortex mixed for 5 minutes, and solubility was analyzed visually.

Soluble? (Sample # 1: 10 mL deionized H2O, 11-15 mg boronic acid, vortex 5 minutes, visual): no | Soluble? (Sample # 2: 10 mL stock sorbitol (0.55 M)): yes | Soluble? (Sample # 3: 10 mL stock sorbitol, pH = 14): yes | Soluble? (Sample # 4: 200 μL stock sorbitol, 5 mL deionized H2O): no | Soluble? (Sample # 5: 5 mL deionized H2O, pH = 12.3): yes | Soluble? (Sample # 6: 1 mL stock sorbitol, 5 mL deionized H2O): no | Soluble? (Sample # 7: 2 mL stock sorbitol, 6 mL deionized H2O): no | Soluble? (Sample # 8: 200 μL stock sorbitol, 5 mL deionized H2O, pH = 10.6): no | Soluble? (Sample # 9: 2 mL stock sorbitol, 6 mL deionized H2O, pH = 11.0): yes | Soluble? (Sample # 10: 2 mL stock sorbitol, 10 mL deionized H2O, pH = 10.4): yes | Soluble? (Sample # 11: 10 mL deionized H2O, pH = 9.8): no | Soluble? (Sample # 12: 2 mL stock sorbitol, 10 mL deionized H2O, pH = 9.2): no | Soluble? (Sample # 13: 2 mL stock sorbitol, 10 mL deionized H2O, pH = 9.4): yes
Structure (SMILES): C=Cc1ccc(B(O)O)cc1 [4-vinylphenyl boronic acid]
